Patent publication US20120016019A1, “PHARMACEUTICAL COMPOSITION FOR TREATING OR PREVENTING CANCER” (priority 2010, published 2012)
Values joined by “and” are separate entries in the source; they are usually repeats but may differ in a detail not shown here. Equal entries are not always repeated.

Columns and labels:
TT = test: Cell counts, TT; format: cell-based
Method: (§1) As a result, LC-50 curves were generated in the 1st week.
(§2) In the 2nd plate, 7 d of the 1st week (LC-50) is the same as 0 h of the 2nd week (recovery).
(§3) At 0 h of the 2nd week, medium was exchanged with untreated medium for the remainder of the experiment. […] As a result, Recovery curves were generated in the 2nd week.

HT 1299 = test: Cell counts, HT 1299; format: cell-based; settings: for cell counts: single wells
Method: as §1, §2, §3
HT 1299 is a non-small cell lung cancer. The cells have a homozygous partial deletion of the p53 protein, and lack expression of p53 protein.

CC(=O)O[C@H]1C(=O)[C@@]2(C)[C@H]([C@H](OC(=O)c3ccccc3)[C@]3(O)C[C@H](OC(=O)[C@H](O)[C@@H](NC(=O)c4ccccc4)c4ccccc4)C(C)=C1C3(C)C)[C@]1(OC(C)=O)CO[C@@H]1C[C@@H]2O [Taxol]
cell counts (TT; 1st week (LC50), 0 h): 133000 and 117500 and 123000 | cell counts, Mean value (TT; 1st week (LC50), 0 h): 124500 | cell counts, Mean value (TT; 1st week (LC50), 24 h): 106333 | cell counts (TT; 1st week (LC50), 48 h): 175000 and 109000 and 114000 | cell counts, Mean value (TT; 1st week (LC50), 48 h): 132667 | cell counts (TT; 1st week (LC50), 4 d): 84000 and 72500 and 56000 | cell counts, Mean value (TT; 1st week (LC50), 4 d): 70833 | cell counts (TT; 1st week (LC50), 7 d): 35000 and 26000 | cell counts, Mean value (TT; 1st week (LC50), 7 d): 32000 | cell counts, Mean value (TT; 2nd week (recovery), 0 h, mean value): 44000 | cell counts (TT; 2nd week (recovery), 0 h, single count): 44000 and 53000 and 35000 | cell counts, Mean value (TT; 2nd week (recovery), 24 h, mean value): 17667 | cell counts, Mean value (TT; 2nd week (recovery), 48 h, mean value): 30667 | cell counts (TT; 2nd week (recovery), 48 h, single count): 35000 and 31000 and 26000 | cell counts, Mean value (TT; 2nd week (recovery), 4 d, mean value): 16667 | cell counts (TT; 2nd week (recovery), 4 d, single count): 15000 and 12500 | cell counts, Mean value (TT; 2nd week (recovery), 7 d, mean value): 11500 | process of cell death (microscopy) (HT 1299): cell membranes were ruptured by toxicity of Taxol, and then nuclei of cells changed into black | cell counts, Mean value (HT 1299; 1st week (LC50), 0 h): 3737 | cell counts, Mean value (HT 1299; 1st week (LC50), 12 h): 3705 | cell counts (HT 1299; 1st week (LC50), 12 h): 2680 and 3085 and 5350 | cell counts, Mean value (HT 1299; 1st week (LC50), 24 h): 3252 | cell counts (HT 1299; 1st week (LC50), 24 h): 2810 and 4255 and 2690 | cell counts, Mean value (HT 1299; 1st week (LC50), 48 h): 1464 | cell counts (HT 1299; 1st week (LC50), 48 h): 1382 and 1526 and 1484 | cell counts (HT 1299; 1st week (LC50), 4 d): 488 and 536 and 712 | cell counts, Mean value (HT 1299; 1st week (LC50), 7 d): 782 | cell counts (HT 1299; 1st week (LC50), 7 d): 982 and 736 | cell counts, Mean value (HT 1299; 2nd week (recovery), 0 h): 919 | cell counts (HT 1299; 2nd week (recovery), 0 h): 1193 and 789 and 776 | cell counts, Mean value (HT 1299; 2nd week (recovery), 24 h): 227 | cell counts, Mean value (HT 1299; 2nd week (recovery), 48 h): 432 | cell counts (HT 1299; 2nd week (recovery), 48 h): 410 and 499 and 386 | cell counts, Mean value (HT 1299; 2nd week (recovery), 4 d): 446 | cell counts (HT 1299; 2nd week (recovery), 4 d): 322 and 545 and 470 | cell counts, Mean value (HT 1299; 2nd week (recovery), 7 d): 118 | cell counts (HT 1299; 2nd week (recovery), 7 d): 104 and 144 and 107
